Source: PubChem BioAssay AID463229 (Broad Institute, 2010)

Test system: INS-1E rat beta cells, no cytokines, CellTiter-Glo ATP, 48 h
Assay: cytokine-free beta-cell viability effect – INS-1E rat cells, ATP luminescence, cherry pick, counter-screen for beta-cell apoptosis protection project, dose response (AID 463229)

Compound | AC50 [µM]
COc1ccc(CC(=O)Nc2nc(-c3ccc(F)c(F)c3)cs2)cc1OC | 7.2
O=S(=O)(c1ccc2c(c1)OCCO2)N1CCN(c2ncnc3sccc23)CC1 | 4.9
O=[N+]([O-])c1ccc(-c2nc(C(Cl)Cl)c3ccccc3n2)cc1 | 1.66
O=C(N/N=C/c1cc(Br)ccc1O)C(=O)Nc1ccccc1OC(F)(F)C(F)F | 6.77
O=C(NCc1cccnc1)c1cc(-c2ccco2)on1 | 2.27
CC(C)(C)OC(=O)NCc1ccc(NC(=O)c2nc[nH]c2C(=O)NCCNC(=O)c2[nH]cnc2C(=O)Nc2ccc(CNC(=O)OC(C)(C)C)cc2)cc1 | 10.8
CC1=NNC(=O)/C1=C\c1cn(-c2ccccc2)nc1-c1ccccc1 | 7.57
COc1cc(NC(C)CCCN)c2ncccc2c1 (configuration not stated) | 13.8
Cc1ccc(N2C(=O)NC(=O)/C(=C\C=C\c3ccco3)C2=O)cc1C | 5.85
CCOc1cccc(/C=N/NC(=O)c2cc(C3CC3)[nH]n2)c1O | 7.83
N#Cc1c2ccc([N+](=O)[O-])cc2[n+]([O-])n1-c1ccccc1 | 5.32
N#CC(C#N)=C(Nc1ccc(F)cc1)SCc1cccc(F)c1 | 5.08
O=C(NC(=S)NNC(=O)c1cnccn1)c1ccc(F)cc1 | 3.48
Cc1ccnc2c1ccc1c(C)ccnc12 | 3.39
CCCCCN=Cc1c(C)[nH]n(-c2nc3ccccc3s2)c1=O | 3.2
CCN1CCN(c2ccc(S(=O)(=O)N3CCCCC3)cc2NC(=O)c2ccc([N+](=O)[O-])o2)CC1 | 8.1
Cc1ccc(-c2cn(-c3ccc(OC(F)F)cc3)c3[n+]2CCCCC3)cc1 | 1.45
O=C(Nc1cccnc1)c1ccc([N+](=O)[O-])s1 | 15.3
Cn1c(/C=C/c2ccc([N+](=O)[O-])o2)nc2ccccc2c1=O | 3.56
Cc1cc(C(C)(C)C)cc(C)c1C[n+]1ccc2ccccc2c1 | 1.74
Cn1cc(CNCc2ccc(OC(F)(F)F)cc2)c(-c2ccc3c(c2)OCCO3)n1 | 3.64
O=C(N/N=C/c1ccc(O)cc1O)/C(=C/c1ccccc1)CCO | 6.54
Cc1ccc(-c2c[n+]3c(n2-c2ccccc2)CCC3)cc1 | 2.02
COc1ccc(N=C2S/C(=C\c3ccc(N4CCOCC4)o3)C(=O)N2CCc2c[nH]c3ccccc23)cc1 | 13.8
C=CCn1c(SCC(=O)c2[nH]c(C)c(C(=O)OCC)c2C)nc2scc(-c3ccc(OC)c(OC)c3)c2c1=O | 3.53
COc1cccc(N2CCN(c3ncnc4c3[nH]c3ccc(F)cc34)CC2C)c1 (configuration not stated) | 3.09

Compound | AC50 [µM]
CS(=O)(=O)c1ncc(Cl)c(C(=O)Nc2ccc(OC(F)F)cc2)n1 | 11.6
CCc1ccc2[nH]c3nc(N/N=C/c4ccc(O)cc4O)nnc3c2c1 | 21.2
COc1ccc2[nH]c3c(C)c4ccncc4c(C)c3c2c1 | 4.13
Cc1cc(C)c2nc(NNC(=O)c3ccc(S(=O)(=O)N4CCc5ccccc5C4)cc3)sc2c1 | 3.39
O=S1(=O)C=C(Sc2nnc(-c3ccccc3)o2)c2ccccc21 | 7.96
S=C(Nc1ccc(Nc2ccccc2)cc1)Nc1ccccn1 | 11.5
COc1ccc(CCNc2c(C)c(C)nc3ncnn23)cc1 | 3.68
CCn1nc(C)c(CNC(=O)c2ccc(OC3CCN(Cc4ccccn4)CC3)cc2)c1C | 6.9
CC[n+]1ccc(/C=C/c2c[nH]c3ccccc23)cc1 | 5.85
CSc1nc(-c2ccccc2)nc(C(Cl)Cl)n1 | 3.88
FC(F)(F)c1ccc(CN2C[C@@H]3C(c4ccc(C(F)(F)F)cc4)C4(c5cccnc5)CC3(C4)[C@H]2c2ccccc2)cc1 (some centres not stated) | 5.15
CNC1=C(N(C(C)=O)c2ccc(Br)cc2)C(=O)c2ccccc2C1=O | 0.943
CC(C)[C@H]1C(=O)O[C@H](C(C)C)C(=O)N(C)[C@@H](C(C)C)C(=O)O[C@H](C(C)C)C(=O)N(C)[C@@H](C(C)C)C(=O)O[C@H](C(C)C)C(=O)N1C | 3.8
COCCN(C(=O)COC(=O)C1CCC(C(C)(C)C)CC1)c1c(N)n(Cc2ccccc2)c(=O)[nH]c1=O (configuration not stated) | 2.17
C(C#CCCCCCCCCC[n+]1ccccc1)#CCCCCCCCCC[n+]1ccccc1 | 1.9
CCC(=O)NC(c1ccc(C)cc1)c1cc([N+](=O)[O-])c2cccnc2c1O (configuration not stated) | 13.8
Cc1nc(Nc2cnc(/C=C/c3cc(C(=O)Nc4cccc(C(F)(F)F)c4)ccc3C)cn2)cc(N2CCNCC2)n1 | 12.3
OCc1ccc(O)c2ncccc12 | 2.38
O=C(Nc1ccc(C(F)(F)F)cc1)C1CCN(S(=O)(=O)c2ccc(N3CCCC3=O)cc2)CC1 | 4.37
Cc1ccc(S(=O)(=O)CC2CSc3nc4ccccc4n32)cc1 (configuration not stated) | 6.51
Oc1[nH]c(N=C2N=c3ccccc3=N2)c2ccccc12 | 3.44
O=C1C(Nc2ccccc2)=C/C(=N/S(=O)(=O)c2cccs2)c2ccccc21 | 2.07
CCOC(=O)COc1ccc2ccccc2c1/C=C/[N+](=O)[O-] | 10.6
O=[N+]([O-])c1ccc(-c2nc3ccc([N+](=O)[O-])cc3[nH]2)cc1 | 6.93
CC(=O)Nc1ccc(NC2=C/C(=N/S(=O)(=O)c3cccs3)c3ccccc3C2=O)cc1 | 7.66
Cc1nc(C(=O)NNC(=O)c2c(-c3c(Cl)cccc3Cl)noc2C)cs1 | 19.9

Compound | AC50 [µM]
CC(C)CN(C(=O)COC(=O)C12CC3CC(CC(Cl)(C3)C1)C2)c1c(N)n(Cc2ccccc2)c(=O)[nH]c1=O | 6.97
CCCCC(=O)NC(c1ccc(N(CC)CC)cc1)c1ccc2cccnc2c1O (configuration not stated) | 1.37
COc1ccc(C(=O)NCC(=O)N/N=C/c2ccc([N+](=O)[O-])s2)cc1OC | 13.5
Cc1cc(C(=O)CSc2nc3ccccc3c(=O)n2C)c(C)n1Cc1ccc2c(c1)OCO2 | 2.07
CCCCCCc1cc2cc(-c3nnc(-c4ccccc4O)o3)c(=O)oc2cc1O | 7.66
CC(=O)c1c(C)[nH]c(C(=O)OCc2cccc(Cl)c2)c1C | 25.4
CC(C)(C)c1ccc(C(O)CCCN2CCC(C(O)(c3ccccc3)c3ccccc3)CC2)cc1 (configuration not stated) | 8.16
CCc1ccc(S(=O)(=O)/N=C2\C=C(Nc3ccc(O)cc3)C(=O)c3ccccc32)cc1 | 2.21
N=c1c2c(n(Cc3cccc(Cl)c3)c3c1CCC3)CCCC2 | 7.28
Cc1ccc(-c2sc(-c3ccccc3)nc2CC(=O)Nc2ccccc2F)cc1 | 2.06
C/C(=N/Nc1nc(-c2ccccc2)cc(-c2ccc(F)cc2)n1)c1cccc(N)c1 | 15.1
CCCCCc1cc(=O)oc2c(C(CCN(CC)CC)c3ccc(OC)cc3)c(OC)cc(OC)c12 (configuration not stated) | 14
CCCNC(=O)c1ccc2c(=O)c(O)c(-c3ccc(Cl)c([N+](=O)[O-])c3)[nH]c2c1 | 10.8
CC(=O)c1c(C)oc2ccc(N(C(C)=O)S(=O)(=O)c3cccc4cccnc34)cc12 | 7.79
Cc1ccc2nc(C)c(CN3CCN(c4ccc([N+](=O)[O-])cc4Cl)CC3)n2c1 | 2.92
O=C(Nc1nc(-c2ccccn2)cs1)c1ccc(F)c(S(=O)(=O)N2CCOCC2)c1 | 7.51
Cc1cc(O)c2c(c1)C(=O)C13C(=C2O)C(=O)[C@H]2[C@@H](O)[C@@H]1[C@H]1[C@H](O)[C@@H]3C(=O)C3=C(O)c4c(O)cc(C)cc4C(=O)C312 (some centres not stated) | 4.68
NC1=NC[C@H](Cc2ccccc2)N1CCCCC1CCCCC1 | 6.91
CC1CCc2c(sc3nc(C4CC4)nc(N4CCN(C(=O)c5ccco5)CC4)c23)C1 (configuration not stated) | 3.01
COc1ccc2nc(/C(C#N)=C\c3ccc(Oc4ccc([N+](=O)[O-])cn4)cc3)[nH]c2c1 | 6.77
O=C(/C=C/c1cccc(Cl)c1)c1ccc([N+](=O)[O-])o1 | 3.68
C/C(=N\NC(=O)c1cc(Br)ccc1O)c1ccccn1 | 7.82
Nc1nc(-c2ccccn2)nc(N)c1Cc1ccc(Cl)cc1Cl | 11.9
COc1ccc(C[C@H]2CN3C(=NC[C@@H]3Cc3ccccc3)N2CCNC(=O)CCC2CCCCC2)cc1 | 12.1
CC(C)(C)C(=O)Nc1ccc(C(=O)N/N=C/c2ccccc2OC(=O)c2ccc(Cl)cc2)cc1 | 11.8
CCCCn1c(/C=N/Nc2nc3ccccc3[nH]2)nc2ccccc21 | 14.1

Compound | AC50 [µM]
O=C(Nc1cc(-c2ccccc2)nn1C1CCCCC1)c1ccc(Cl)cc1 | 3.67
O=C(Nc1nc(-c2ccccc2)cs1)c1ccccc1NS(=O)(=O)c1ccc(F)cc1 | 4.56
Oc1ccc2ccccc2c1/C=N/Nc1nnc(-c2ncc[nH]2)c2ccccc12 | 3.39
Cc1cc(F)ccc1S(=O)(=O)Nc1ccccc1C(=O)Nc1ccccc1-c1nc2ccccc2[nH]1 | 7.72
O=C([O-])c1cc(-c2ccccc2)cc(-c2ccccc2)[n+]1Cc1ccccc1 | 1.98
Cc1cc(N/N=C/c2ccccc2[N+](=O)[O-])nc(-n2nc(C)cc2C)n1 | 12.2
Cc1ccc2oc(-c3ccc(NC(=O)c4cccnc4)cc3)nc2c1 | 19.1
Cc1sc2ncnc(N3CCN(S(=O)(=O)c4ccccc4)CC3)c2c1C | 5.98
CCN(c1ccccc1)S(=O)(=O)c1ccc(C(=O)NC2CCN(Cc3ccccc3)CC2)cc1 | 6.36
COc1ccc2c(c1)N(C)/C(=C/c1cccc[n+]1C)S2 | 1.49
C=C(C)C(=O)O[C@H]1C/C(C)=C\C(=O)/C=C(\C)[C@H](O)[C@@H]2OC(=O)C(=C)[C@@H]21 | 14.5
CCN(C1CCCCC1)S(=O)(=O)c1ccc(S(=O)(=O)NCc2ccncc2)cc1 | 6.3
CCN(CC)c1ccc(CNc2nc3ccccc3n2CCN2CCCCC2)cc1 | 7.26
CC[C@@H](C(=O)[C@@H](C)[C@@H](O)[C@H](C)CCc1ccc(C)c(O)c1C(=O)O)[C@H]1O[C@](CC)([C@H]2CC[C@](O)(CC)[C@H](C)O2)C[C@@H]1C | 2.49
C#Cc1ccc([C@@H]2C=C(C(=O)N3CCN(Cc4ccccc4)CC3)O[C@H](OCCCCO)C2)cc1 | 2.13
O=C(N/N=C/c1ccccc1O)c1cccc(C(F)(F)F)c1 | 7.18
FC(F)(F)c1nnc(-c2ccccc2)nc1Sc1ccc(Cl)cc1 | 12.6
Cc1c(/C=N/Nc2nc3ccccc3[nH]2)c2ccccc2n1C | 6.36
CN(C)C1CCN(Cc2cc(COCc3ccccc3)c3cccnc3c2O)C1 (configuration not stated) | 10.9
COc1ccc(-c2ccc([C@H]3[C@@H]4C=CCC[C@@]4(C)C(=O)N3Cc3ccccc3)c(F)c2)cc1 | 22.5
Cc1ccccc1NC(=O)/C=C/c1ccc([N+](=O)[O-])s1 | 6.96
CCn1c(C)nc2cc(-c3nnc(-c4c(-c5ccccc5)noc4C)o3)ccc21 | 5.18
CCCc1sc(N/N=C/c2ccccn2)nc1-c1ccc(F)cc1 | 2.27
CCOC(=O)C1CCN(Cc2ccc(O)c3ncccc23)CC1 | 12.5
